Data from ChEMBL document CHEMBL1201862, “PubChem BioAssay data set” (2004).
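96-well plates; 48 h exposure; 5 concentrations. Endpoints by linear interpolation between flanking doses. Not reached: highest tested concentration assigned. Here, GI50 denotes the concentration required for 50% inhibition of growth.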 Activity calls are given as the source filed them. Rule as the data show it: active = GI50 up to about 1.1 µM and inactive = higher.

Tests used:
Experiment in all cases: NCI anticancer screen, dose series, 48 h
[1] = tested on: SF-295
[2] = tested on: OVCAR-3
[3] = tested on: SNB-75
[4] = tested on: A498
[5] = tested on: UACC-62
[6] = tested on: IGROV-1
[7] = tested on: SW-620
[8] = tested on: SF-539
[9] = tested on: A549
[10] = tested on: EKVX
[11] = tested on: NCI-H23
[12] = tested on: NCI-H460
[13] = tested on: HCT-15
[14] = tested on: OVCAR-8
[15] = tested on: SR
[16] = tested on: MOLT-4
[17] = tested on: K562
[18] = tested on: SF-268

For `COc1ccc2c3c(coc13)C(CCC(=O)O)CC2` (stereo not drawn), the GI50 [1] was > 100 µM (inactive), the GI50 [2] was > 100 µM (inactive) and the GI50 [3] was 56.6 µM (inactive). For the same compound, the GI50 [4] was > 100 µM (inactive), the GI50 [5] was > 100 µM (inactive) and the GI50 [6] was > 100 µM (inactive). The GI50 [7] was > 100 µM (inactive), the GI50 [8] was > 100 µM (inactive) and the GI50 [9] was > 100 µM (inactive). For the same compound, the GI50 [10] was > 100 µM (inactive), the GI50 [11] was > 100 µM (inactive) and the GI50 [12] was > 100 µM (inactive). For the same compound, the GI50 [13] was greater than 100 µM and the GI50 [14] was > 100 µM (inactive).
For `CCOC1c2nc3ccccc3nc2-c2ccccc2N1C(C)=O` (stereo not drawn), the GI50 [1] was 69.3 µM (inactive), the GI50 [2] was > 100 µM (inactive) and the GI50 [3] was 46.2 µM (inactive). The GI50 [4] was > 100 µM (inactive), the GI50 [5] was > 100 µM (inactive) and the GI50 [6] was > 100 µM (inactive). For the same compound, the GI50 [7] was > 100 µM (inactive), the GI50 [8] was > 100 µM (inactive) and the GI50 [15] was > 100 µM (inactive). The GI50 [9] was > 100 µM (inactive), the GI50 [10] was > 100 µM (inactive) and the GI50 [11] was > 100 µM (inactive). For the same compound, the GI50 [12] was > 100 µM (inactive), the GI50 [16] was > 100 µM (inactive) and the GI50 [13] was greater than 100 µM. For the same compound, the GI50 [17] was 83 µM (inactive) and the GI50 [14] was 48.2 µM (inactive).
`CCC(=O)C1=C(OC(C)=O)C2Cc3c(n(C)c4ccccc34)C(C1)N2C` (stereo not drawn) was tested, and the GI50 [1] was > 100 µM (inactive), the GI50 [2] was 22.9 µM (inactive) and the GI50 [3] was 25.5 µM (inactive). For the same compound, the GI50 [4] was 42.9 µM (inactive), the GI50 [5] was 26.2 µM (inactive) and the GI50 [6] was 29.9 µM (inactive). The GI50 [7] was 26.1 µM (inactive), the GI50 [8] was 16.7 µM (inactive) and the GI50 [15] was 36.1 µM (inactive). The GI50 [9] was 68.5 µM (inactive), the GI50 [10] was 64.3 µM (inactive) and the GI50 [11] was 68.9 µM (inactive). For the same compound, the GI50 [12] was 53 µM (inactive), the GI50 [16] was 34.7 µM (inactive) and the GI50 [13] was 18.7 µM. For the same compound, the GI50 [17] was 33.3 µM (inactive), the GI50 [14] was 18.9 µM (inactive) and the GI50 [18] was 19 µM (inactive).
With `CC(C)(Oc1ccc(/C=C/C(=O)c2ccc(Cl)cc2)cc1)C(=O)Nc1c(Cl)cccc1Cl` the GI50 [1] was 25.8 µM (inactive), the GI50 [2] was 19.5 µM (inactive) and the GI50 [3] was 29.4 µM (inactive). For the same compound, the GI50 [4] was 17.1 µM (inactive), the GI50 [5] was 17.3 µM (inactive) and the GI50 [6] was 26.9 µM (inactive). For the same compound, the GI50 [7] was 12.8 µM (inactive), the GI50 [8] was 14.6 µM (inactive) and the GI50 [15] was > 100 µM (inactive). The GI50 [9] was 31.4 µM (inactive), the GI50 [10] was 57.8 µM (inactive) and the GI50 [11] was 17.3 µM (inactive). For the same compound, the GI50 [12] was 31.6 µM (inactive), the GI50 [16] was 6.32 µM (inactive) and the GI50 [13] was 15.1 µM. For the same compound, the GI50 [17] was > 100 µM (inactive), the GI50 [14] was 14.1 µM (inactive) and the GI50 [18] was 28.5 µM (inactive).
`COC(=O)N1CCc2c(nc(N(C)CCO)[nH]c2=O)C1` was tested, and the GI50 [1] was > 100 µM (inactive), the GI50 [2] was > 100 µM (inactive) and the GI50 [3] was > 100 µM (inactive). For the same compound, the GI50 [4] was > 100 µM (inactive), the GI50 [5] was > 100 µM (inactive) and the GI50 [6] was > 100 µM (inactive). The GI50 [7] was > 100 µM (inactive), the GI50 [8] was > 100 µM (inactive) and the GI50 [15] was > 100 µM (inactive). The GI50 [9] was > 100 µM (inactive), the GI50 [10] was > 100 µM (inactive) and the GI50 [11] was > 100 µM (inactive). For the same compound, the GI50 [12] was > 100 µM (inactive), the GI50 [16] was > 100 µM (inactive) and the GI50 [13] was greater than 100 µM. For the same compound, the GI50 [17] was > 100 µM (inactive), the GI50 [14] was > 100 µM (inactive) and the GI50 [18] was > 100 µM (inactive).
With `N/N=C1\C(=O)N(CCc2ccccc2)C(=O)C1C(=O)NCCc1ccccc1` (stereo not drawn) the GI50 [1] was > 100 µM (inactive), the GI50 [2] was > 100 µM (inactive) and the GI50 [3] was > 100 µM (inactive). For the same compound, the GI50 [5] was > 100 µM (inactive), the GI50 [6] was > 100 µM (inactive) and the GI50 [7] was > 100 µM (inactive). For the same compound, the GI50 [8] was > 100 µM (inactive), the GI50 [15] was > 100 µM (inactive) and the GI50 [9] was > 100 µM (inactive). The GI50 [10] was > 100 µM (inactive), the GI50 [11] was > 100 µM (inactive) and the GI50 [16] was > 100 µM (inactive). The GI50 [17] was > 100 µM (inactive) and the GI50 [18] was > 100 µM (inactive).
With `CC(C)C(=O)NS(=O)(=O)c1ccccc1` the GI50 [1] was > 100 µM (inactive), the GI50 [2] was > 100 µM (inactive) and the GI50 [3] was > 100 µM (inactive). The GI50 [4] was > 100 µM (inactive), the GI50 [5] was > 100 µM (inactive) and the GI50 [6] was > 100 µM (inactive). For the same compound, the GI50 [7] was > 100 µM (inactive), the GI50 [8] was > 100 µM (inactive) and the GI50 [15] was > 100 µM (inactive). The GI50 [9] was > 100 µM (inactive), the GI50 [10] was > 100 µM (inactive) and the GI50 [11] was > 100 µM (inactive). The GI50 [12] was > 100 µM (inactive), the GI50 [16] was > 100 µM (inactive) and the GI50 [17] was > 100 µM (inactive). For the same compound, the GI50 [14] was > 100 µM (inactive) and the GI50 [18] was > 100 µM (inactive).
With `CC1CCP(=O)(c2ccccc2)c2ccccc21` (stereo not drawn) the GI50 [1] was > 100 µM (inactive), the GI50 [2] was 76.2 µM (inactive) and the GI50 [3] was > 100 µM (inactive). The GI50 [4] was > 100 µM (inactive), the GI50 [5] was 52.8 µM (inactive) and the GI50 [6] was > 100 µM (inactive). The GI50 [7] was > 10 µM (inactive), the GI50 [8] was 56.1 µM (inactive) and the GI50 [15] was 32.4 µM (inactive). For the same compound, the GI50 [9] was > 100 µM (inactive), the GI50 [10] was > 100 µM (inactive) and the GI50 [11] was > 100 µM (inactive). For the same compound, the GI50 [12] was 40.8 µM (inactive), the GI50 [16] was 30.8 µM (inactive) and the GI50 [13] was 38.1 µM. The GI50 [17] was 25.1 µM (inactive) and the GI50 [14] was 41.6 µM (inactive).
`CC1(C)c2ccccc2N2O[C@@H]3C(=O)N(c4ccccc4)C(=O)[C@@H]3C21c1ccccc1` (stereo partly drawn) was tested, and the GI50 [1] was > 100 µM (inactive), the GI50 [2] was > 100 µM (inactive) and the GI50 [3] was 84.1 µM (inactive). For the same compound, the GI50 [5] was > 100 µM (inactive), the GI50 [6] was > 100 µM (inactive) and the GI50 [7] was > 100 µM (inactive). The GI50 [8] was > 100 µM (inactive), the GI50 [9] was > 100 µM (inactive) and the GI50 [10] was > 100 µM (inactive). For the same compound, the GI50 [11] was > 100 µM (inactive), the GI50 [16] was 47.8 µM (inactive) and the GI50 [13] was greater than 100 µM. The GI50 [17] was 56.4 µM (inactive), the GI50 [14] was > 100 µM (inactive) and the GI50 [18] was > 100 µM (inactive).
